Experimental data taken from US20040106135A1, “Assay for PPAR ligand dependent gene modulation” (priority 2002, published 2004).

Tests used:
PDK-4 [1] = settings: Way et al. (2001); cited from earlier work
[2] = Serum triglyceride levels in fat-fed hamsters; format: in vivo, hamster; settings: for Serum triglyceride levels, 48 h / Serum triglyceride levels, 8 h / Serum triglyceride levels, 16 h: single dose, mean +/- SEM, 3 animals; for Serum triglyceride levels, 48 h: control 208.67; for Serum triglyceride levels, 8 h: control 261.33; for Serum triglyceride levels, 16 h: control 308.00
Description: Blood was sampled at 8, 16 and 48 hours following a single drug treatment for total triglyceride analysis. The mean levels (+/−SEM) for 3 animals per group are shown. The “*” indicates a statistically significant difference with respect to control (p<0.01) by Student's t-test. Animal studies: All procedures performed in this study were approved by the Animal Care and Use committee, and conform to the guide for the Care and Use of Laboratory Animals Act. Male Syrian Golden hamsters (Charles River, Wilmington Mass.) weighing 120-140 g, were used in the study. Animals were kept on a 12-hour light/dark cycle and allowed free access to normal chow and water. The animals were divided into groups according to weight, and fed either an high fat diet (0.5% cholesterol, 5% coconut oil) (N=3) or normal chow diet (N=3). […] At intervals of 0, 8, 16 and 48 hr animals were anesthetized with CO2. Blood was collected by cardiac puncture into EDTA containing tubes; plasma was isolated for immediate analysis of triglycerides by the Dade Clinical Analyser®. Animals were then euthanized with CO2. The liver and kidneys were collected, flash frozen in liquid nitrogen and stored at −80° C. for future gene expression analysis.

hamster PPARα = assay: Hamster PPARα transactivation assay; format: cell-based
[3] = test system: hamster PDK-4 mRNA in kidney; assay: PDK-4 mRNA induction in kidney of fat-fed hamsters; format: in vivo; settings: single dose (GW9578 3 mg/kg, fenofibrate 100 mg/kg, gemfibrozil 500 mg/kg), 16 hours
Description: FIG. 4B is a bar graphs depicting the induction of PDK-4 mRNA in hamster kidney by PPARα ligands. […] After 16 hours, the tissues were harvested, total RNA isolated and levels of hamster PDK-4 mRNA were detected by RT-PCR. The values are normalized to 18S rRNA levels. The mean and SEM of three individual animals are shown.
(§1) PDK-4 plays a critical role in regulating glucose metabolism by phosphorylating and inactivating the pyruvate dehydrogenase complex in response to increased fatty acid oxidation. […] To investigate the response of PDK-4 to fibrate treatment in vivo, in another aspect of the present invention the fat-fed hamster model was employed, which closely mimics the serum lipid profiles of humans than other rodent models (Sullivan et al., (1993) Lab. Anim. Sci. 43:575-578). […] These doses were previously shown to yield maximal effects on blood triglycerides in hamster. […] In hamster kidney, the basal levels of PDK-4 mRNA were approximately 10-fold higher than in the liver (FIG. 4B). […] Fibrates are effective treatments for lowering serum triglyceride levels. To verify that the doses used in this study were efficacious, blood triglyceride levels were monitored over a 48 hour time course.
(§2) Real-time PCR: Fluorescence-based real-time PCR was performed essentially as described (Abbaszade et al., (1999) J. Biol. Chem. 274:23443-23450). […] Taqman-based real-time PCR expression profiling was performed using 25 ng of each cDNA according to the manufacturer's (PE Biosystems) instructions with fluorescence being monitored in real-time with an ABI Prism 7700 (PE Biosystems). Relative expression levels were determined essentially as described (Gibson et al., (1996) Genome Res. 6:995-1001) using standard curves for each transcript. Relative abundance was then determined from these standard curves, subtracting mRNA levels obtained from negative control reactions performed in the absence of reverse transcriptase, and normalized to 18S rRNA levels. […]

[4] = test system: PDK-4 mRNA in HK-2 cells (endogenous PPARα); assay: PDK-4 mRNA induction in HK-2 cells (real-time RT-PCR); format: cell-based, human; settings: 24 hours; for EC50: Homo sapiens, HK-2, PDK-4 mRNA induction by quantitative PCR, normalized to 18S rRNA, read-out: EC50 (μM) in HK-2 (PDK-4)
Description: (§3) Values were normalized to 18S rRNA levels.
(§4) EC50 values were determined for PDK-4 mRNA induction by quantitative PCR under conditions used to generate the data shown in FIG. 2. EC50 values in the transactivation assays were determined by transfection of an expression plasmid encoding a GAL4-hPPARα chimera into cells co-expressing a luciferase reporter gene under the transcriptional control of GAL4 upstream activating elements.
(§5) Cell culture: The following cell lines were obtained from American Type Culture Collection (ATCC) and cultured in the recommended medium for each cell type: HepG2, HK-2, Caki-1, LNCaP (CloneFGC), SW872, and ACHN. PPARα compounds were prepared to a 500× stock in DMSO; corresponding control cells received an equal volume of vehicle (0.2% v/v).
Real-time PCR: Fluorescence-based real-time PCR was performed essentially as described (Abbaszade et al., (1999) J. Biol. Chem. 274:23443-23450). Primers and probes designed from the hamster pyruvate dehydrogenase kinase 4 (PDK4) sequence (Genbank Accession No. AF321218), human pyruvate dehydrogenase kinase 4 (PDK-4) sequence (Genbank Accession No. NM_002612) and human adipose differentiation-related protein (ADFP) sequence (Genbank Accession No. NM_001122) were synthesized and purified by Biosearch Technologies. Probes for ADFP and PDK-4 were modified at the 5′ end with the reporter dye 6-FAM, and at the 3′ end with the quencher dye Black Hole Quencher 1 (Biosearch Technologies). Probes detecting rat 18S rRNA were modified at the 5′ end with VIC and at the 3′ end with TAMRA (Biosearch Technologies). For detection of hamster PDK4, primers 5′-[…] (SEQ ID NO:2), 5′[…] (SEQ ID NO:3), and probe 5′-[…] (SEQ ID NO:4) were used. For detection of human PDK4, primers 5′-[…] (SEQ ID NO:5), 5′-[…] (SEQ ID NO:6), and probe 5′-[…] (SEQ ID NO:7) were used. For detection of human ADFP, primers 5′-[…] (SEQ ID NO:8), 5′-[…] (SEQ ID NO:9), and probe 5′-[…] (SEQ ID NO: 10) were used. For detection of 18s rRNA, primers 5′-[…] (SEQ ID NO:11), 5′-[…] (SEQ ID NO:12), and probe 5′-[…] (SEQ ID NO:13) were used. Template cDNA was generated using the Advantage RT-PCR kit according to the manufacturer's (Clontech) instructions using random hexamers and 1 μg of DNaseI-treated total RNA. Taqman-based real-time PCR expression profiling was performed using 25 ng of each cDNA according to the manufacturer's (PE Biosystems) instructions with fluorescence being monitored in real-time with an ABI Prism 7700 (PE Biosystems). Relative expression levels were determined essentially as described (Gibson et al., (1996) Genome Res. 6:995-1001) using standard curves for each transcript. Relative abundance was then determined from these standard curves, subtracting mRNA levels obtained from negative control reactions performed in the absence of reverse transcriptase, and normalized to 18S rRNA levels. All expression measurements were performed in duplicate in two independent assays, generating a total of four measurements per cDNA.

[5] = test system: ADRP mRNA in HK-2 cells (endogenous PPARα); assay: ADRP mRNA induction in HK-2 cells (real-time RT-PCR); format: cell-based, human; settings: highest dose tested 300 μM
Description: as §3, §5, §2

GAL4-hPPARα = biological target: T1, GAL4-hPPARα (Homo sapiens, UniProt Q07869); assay: Transactivation assay, GAL4-hPPARα chimera with luciferase reporter; format: cell-based; settings: HEK293 cell line with GAL4 UAS-Luciferase reporter; read-out: EC50 (μM) in Transactivation Assay (GAL4-hPPARα), Present Disclosure
T1 construct: other: HEK293 cell line with GAL4 UAS-Luciferase
T1 sequence (Q07869 200-468 limits assumed): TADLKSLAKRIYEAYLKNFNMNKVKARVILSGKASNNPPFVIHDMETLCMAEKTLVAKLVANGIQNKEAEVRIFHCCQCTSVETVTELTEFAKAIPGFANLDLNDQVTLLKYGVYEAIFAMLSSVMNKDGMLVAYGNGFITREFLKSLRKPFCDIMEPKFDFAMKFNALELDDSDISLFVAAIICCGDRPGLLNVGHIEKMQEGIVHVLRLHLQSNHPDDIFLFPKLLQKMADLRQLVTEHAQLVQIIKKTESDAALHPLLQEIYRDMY
Description: as §4
Transcriptional activation assay: Cell based transcriptional activation assays using a GAL4-hPPARa expression plasmid and an HEK293 cell line stably integrated with a GAL4 UAS-Luciferase reporter gene was performed exactly as described previously (Mukherjee et al., (2002) J. Steroid Biochem. Mol. Biol. 1712:1-9).

[6] = test system: hamster PDK-4 mRNA in liver; assay: PDK-4 mRNA induction in liver of fat-fed hamsters; format: in vivo; settings: single dose (GW9578 3 mg/kg, fenofibrate 100 mg/kg, gemfibrozil 500 mg/kg), 16 hour post-treatment
Description: FIG. 4A is a bar graph depicting the induction of PDK-4 mRNA in hamster liver by PPARα ligands. […] After 16 hours, the tissues were harvested, total RNA isolated and levels of hamster PDK-4 mRNA were detected by RT-PCR. The values are normalized to 18S rRNA levels. The mean and SEM of three individual animals are shown.
as §1, §2

PDK-4 [7] = settings: Wu et al. (1999); abrogated in PPARα-/- mice; cited from earlier work
[8] = test system: PDK4 mRNA in HEK293 cells; assay: PDK4 mRNA induction in HEK293 cells by PPAR modulators (Taqman PCR); format: cell-based, human; settings: 4 hours; 100 micromolar fenofibric acid, 10 micromolar rosiglitazone, 10 micromolar GW501516; relative to CYCD1 mRNA
Description: HEK293 cells were treated for 4 hours with the following PPAR modulators:
100 micromolar fenofibric acid (a PPARα selective modulator), 10 micromolar rosiglitazone (a PPARγ selective modulator) and 10 micromolar GW501516 (a PPARβ(δ) selective modulator; Oliver et al., (2001) Proc. Natl. Acad. Sci. U.S.A. 98:5306-11). PDK4 mRNA was measured by Taqman PCR analysis. The PDK4 expression levels are expressed relative to CYCD1 mRNA used as a normalization control.

Compound | Serum triglyceride levels, 48 h [2] | Serum triglyceride levels, 8 h [2] | Serum triglyceride levels, 16 h [2] | Induction of PDK-4 mRNA in kidney [3] | EC50 [4] | EC50 (GAL4-hPPARα) | Induction of PDK-4 mRNA levels in the liver [6] | other results
CN(CCOc1ccc(C[C@H](Nc2ccccc2C(=O)c2ccccc2)C(=O)O)cc1)c1ccccn1 [GW1929] | – | – | – | – | – | – | – | PDK-4 levels in the skeletal muscle of rats (PDK-4 [1]): decrease PDK-4 levels
Cc1ccc(C)c(OCCCC(C)(C)C(=O)O)c1 [Gemfibrozil] | 206.33 + 65.30 | 334.33 + 82.42 | 325.67 + 46.77 | no effect | 27 µM | 60 µM | least effect | Change of triglyceride levels compared with the control group ([2]; single dose, 8, 16 and 48 hours): neither gemfibrozil nor fenofibrate altered triglyceride levels to a statistically significant degree; Activity in hamster PPARα transactivation assay (hamster PPARα): lowest activity; Efficacy of PDK-4 induction compared with GW9578 ([4]; HK-2 cells, maximal induction by GW9578 = 100%): lower efficacy than GW9578; Saturation of ADRP induction [5]: did not appear to saturate
CC(C)(Oc1ccc(C(=O)c2ccc(Cl)cc2)cc1)C(=O)O [Fenofibric Acid, fenofibric acid] | – | – | – | – | 10 µM | 80 µM | – | –
CC(C)OC(=O)C(C)(C)Oc1ccc(C(=O)c2ccc(Cl)cc2)cc1 [Fenofibrate, fenofibrate] | 146.33 + 17.15 | 229.00 + 38.52 | 231.67 + 63.22 | 11 fold | – | – | 14 fold | –
Cc1cccc(Nc2cc(Cl)nc(SCC(=O)O)n2)c1C [WY-14, 643] | – | – | – | – | – | – | – | PDK-4 induction in rodent tissues in vivo (PDK-4 [7]): PDK-4 induction was observed
Cc1cc(SCc2sc(-c3ccc(C(F)(F)F)cc3)nc2C)ccc1OCC(=O)O [GW501516] | – | – | – | – | – | – | – | PDK4 mRNA induction in HEK293 cells [8]: induced
